Data reported in patent US20250288518A1, “METHODS OF USING RADIPRODIL IN THE TREATMENT OF DISORDERS” (GRIN Therapeutics, Inc., priority 2023, published 2025).
“And” between values parts separate entries of the source, which are not always exact repeats. Equal values may be shown once. Read-outs that look alike come from different tables or passages of the source.

How the values were obtained:
in vivo [1] = conditions: rat
[2] = 9-month dog toxicology study; format: in vivo; conditions: 1.5 mg/kg/day
[3] = 135 mg daily (45 mg tid) up to 14 weeks; cited from earlier work
[4] = phase 1B study, behavioral cohort: treatment emergent adverse events; format: in vivo, human
Description: Pyrexia, diarrhoea, and respiratory tract infection were the most common TEAEs. Three patients experienced SAEs, all unrelated to radiprodil treatment. One each of adenovirus infection, bronchiolitis, and viral pneumonia.

NR2B receptor = biological target: T1, NR2B receptor (Rattus norvegicus, UniProt P35439+Q00960); experiment: NR2B occupancy at rat doses, based on ex-vivo occupancy study in rodents
T1 construct: occupancy of the NR2B receptor, based on an ex-vivo occupancy study in rodents; from tissue; host or cells: rodent brain (ex vivo occupancy; brain is implied by the 1:1 brain to plasma ratio)
T1 sequence (Q00960 27-1482, other chains not shown): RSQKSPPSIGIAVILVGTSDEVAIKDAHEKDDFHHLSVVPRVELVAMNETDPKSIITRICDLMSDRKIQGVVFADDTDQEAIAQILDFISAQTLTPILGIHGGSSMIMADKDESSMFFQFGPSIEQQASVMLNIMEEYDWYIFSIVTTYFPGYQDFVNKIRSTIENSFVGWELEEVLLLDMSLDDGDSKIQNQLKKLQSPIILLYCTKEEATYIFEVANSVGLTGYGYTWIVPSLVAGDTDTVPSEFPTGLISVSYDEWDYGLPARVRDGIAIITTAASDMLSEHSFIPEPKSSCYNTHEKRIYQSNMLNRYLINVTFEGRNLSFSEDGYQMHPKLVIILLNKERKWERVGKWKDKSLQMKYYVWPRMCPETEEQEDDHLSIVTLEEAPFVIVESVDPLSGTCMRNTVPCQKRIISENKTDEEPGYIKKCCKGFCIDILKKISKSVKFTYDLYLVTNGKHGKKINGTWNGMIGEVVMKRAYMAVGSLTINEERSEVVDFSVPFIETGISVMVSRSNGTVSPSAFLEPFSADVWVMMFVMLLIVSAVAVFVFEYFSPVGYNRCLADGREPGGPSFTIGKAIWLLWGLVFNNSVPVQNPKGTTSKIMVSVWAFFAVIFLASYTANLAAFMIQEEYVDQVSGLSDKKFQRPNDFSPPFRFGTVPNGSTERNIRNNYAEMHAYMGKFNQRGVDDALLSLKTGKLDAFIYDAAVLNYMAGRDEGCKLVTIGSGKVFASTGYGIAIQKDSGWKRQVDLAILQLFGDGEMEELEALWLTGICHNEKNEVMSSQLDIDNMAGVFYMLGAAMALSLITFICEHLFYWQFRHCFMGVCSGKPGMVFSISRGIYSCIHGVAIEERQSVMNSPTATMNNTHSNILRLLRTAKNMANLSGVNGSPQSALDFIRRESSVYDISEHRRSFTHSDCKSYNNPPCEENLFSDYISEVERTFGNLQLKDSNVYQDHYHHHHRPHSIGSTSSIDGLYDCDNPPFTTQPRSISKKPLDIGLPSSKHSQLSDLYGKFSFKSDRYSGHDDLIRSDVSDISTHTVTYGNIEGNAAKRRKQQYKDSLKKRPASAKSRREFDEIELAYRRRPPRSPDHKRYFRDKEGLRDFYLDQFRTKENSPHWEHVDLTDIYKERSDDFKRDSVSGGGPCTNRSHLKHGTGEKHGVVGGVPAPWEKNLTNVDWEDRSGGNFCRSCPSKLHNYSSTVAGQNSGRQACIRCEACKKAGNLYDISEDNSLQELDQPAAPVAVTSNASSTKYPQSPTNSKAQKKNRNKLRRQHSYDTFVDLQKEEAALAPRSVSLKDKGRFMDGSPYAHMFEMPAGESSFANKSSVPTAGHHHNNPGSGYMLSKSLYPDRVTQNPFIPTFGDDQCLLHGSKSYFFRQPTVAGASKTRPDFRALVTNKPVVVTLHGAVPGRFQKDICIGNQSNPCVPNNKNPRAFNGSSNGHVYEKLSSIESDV
Experimental: (§1) Radiprodil anticonvulsant efficacy was specifically tested in rats at different time points during postnatal development, using pentylenetetrazole (PTZ) as a convulsant, to induce generalized clonic-tonic seizures. The activity of radiprodil in this juvenile PTZ rat model was tested up to 30 mg/kg, showing efficacy at a dose of 1 mg/kg. The calculated free plasma fraction of an orally administered 1 mg/kg dose is expected to give around 60% occupancy of the NR2B receptor, based on an ex-vivo occupancy study in rodents and assuming a 1:1 brain to plasma ratio, see below for further details.

behavioral symptoms = experiment: phase 1B study, behavioral cohort: global impressions of change; format: in vivo, human; conditions: clinicians and caregivers
Description: (§2) This is a global, open-label, multicenter, phase 1B study to evaluate the safety, tolerability, and PK of multiple individually titrated doses of radiprodil and to assess the treatment effect on seizures and behavioral symptoms in 2 cohorts of pediatric participants: 1 cohort of participants with drug resistant seizures (with or without behavioral symptoms) (Cohort 1) and 1 cohort of participants with behavioral symptoms (but no qualifying seizures) (Cohort 2) caused by GoF variants in the GRIN1, 2A, 2B, or 2D genes (GRIN2B GoF variants only in the US). These GoF variants are gene mutations that cause an increased sensitivity of NMDA receptors to glutamate or through decreased inhibition by magnesium, altered affinity to glycine, or other relevant changes considered to increase NMDA transmission. Drug-resistant seizures are defined as a failure to respond to at least 2 antiseizure medication (ASM) therapies taken at adequate doses for an appropriate duration with assured medication adherence as determined by the treating physician. Participants with seizures to be enrolled in the first cohort should have at least 1 observable motor seizure per week and ≥4 observable motor seizures in the prospective 4-week Observation Period.
A behavioral cohort of patients from 6 months to 12 years of age with known GoF variants confirmed via method described in Myers, et al., Hum Mol Genetics. […]

audiogenic seizures = experiment: audiogenic seizure model (generalized seizures); format: in vivo; conditions: adult mice
[5] = Phase 1 study of normal healthy human subjects, 45 mg Radiprodil (30% Formulation) fed and fasted; format: in vivo; conditions: for AUC(0-inf) / AUC(0-t) / Cmax: human, in vivo, oral; for AUC(0-inf): read-out: AUCinf Geometric LSM; for AUC(0-t): read-out: AUClast Geometric LSM; for Cmax: read-out: Cmax Geometric LSM
[6] = phase 1B study, seizure cohort: treatment emergent adverse events; format: in vivo
Description: The primary objectives of this study are to determine the safety and tolerability of multiple individually titrated doses of radiprodil as an add-on therapy to standard of care (SOC) in pediatric participants; establish a safe and well-tolerated dose; and to determine the pharmacokinetics (PK) and plasma exposure of radiprodil. Endpoints of these primary objectives include: adverse events (AEs), serious adverse events (SAEs), and adverse drug reactions (ADRs) (frequency, type, severity, and duration); changes in vital signs; physical examination findings; 12-lead electrocardiogram (ECG) findings; clinically significant changes in laboratory parameters; emergence of new seizure types; occurrence of suicidal ideation or behavior; determination of the maximum tolerated dose of radiprodil based on safety and tolerability data; and plasma concentrations of radiprodil.
Pyrexia, diarrhoea, and respiratory tract infection were the most common TEAEs. Three patients experienced SAEs, all unrelated to radiprodil treatment. One each of adenovirus infection, bronchiolitis, and viral pneumonia

[7] = cited from earlier work
[8] = system: countable motor seizure (CMS); experiment: phase 1B study, seizure cohort: efficacy; format: in vivo, human
Description: Investigational Product (IP): Radiprodil. This example describes an open-label, multicenter phase 1B study being conducted to evaluate the safety, tolerability, and pharmacokinetics (PK) of multiple individually titrated doses of radiprodil and to assess the treatment effect on seizures in participants with drug-resistant seizures caused by gain-of-function (GoF) variants in the GRIN1, GRIN2A, GRIN2B, or GRIN2D genes (GRIN2B GoF variants in the US only).
as §2
A seizure cohort of patients from 6 months to 12 years of age with known GoF variants confirmed via method described in Myers, et al., Hum Mol Genetics. 2023, 32:2857-2871, was enrolled. The patients had drug-resistant seizures with or without behavioral symptoms. Patients also had ≥1 weekly countable motor seizure (CMS) with ≥4 generalized or focal seizures during the observation period. Motor seizures included drop seizures; generalized onset seizures included tonic-clonic, tonic, bilateral clonic, atonic, myoclonic-atonic, and myoclonic-tonic-clonic seizures; and focal seizures included seizures with bilateral hyperkinetic motor features and clonic seizures.
Primary endpoints included safety, tolerability, and radiprodil plasma concentrations. Key secondary endpoints (aka, change from baseline in observable daily CMS frequency using an electronic diary (eDiary)), included ≥50%, ≥90%, and 100% reductions from baseline in seizure frequency; proportion of seizure-free days; and Clinical Global Impressions of Change (CGI-C) and Caregiver Global Impressions of Change (CaGI-C), from baseline to the end of the maintenance period.

in vivo [9] = conditions: dog
[10] = system: pentylenetetrazole (PTZ)-induced generalized clonic-tonic seizures; experiment: juvenile PTZ rat model; format: in vivo
Experimental: as §1

[11] = all unrelated to radiprodil treatment
[12] = 2 participants, doses up to 0.2 mg/kg bid

O=C(Nc1ccc2[nH]c(=O)oc2c1)C(=O)N1CCC(Cc2ccc(F)cc2)CC1 [Radiprodil]
AUC (in vivo [1]): 9550 ng·h/mL
AUC0-24h at NOAEL (in vivo [1]): 9,555 ng×h/mL
AUC(0-t) (in vivo [1]): 9560 ng·h/mL
Cmax (in vivo [1]): 1400 ng/mL
Cmax at NOAEL (in vivo [1]): 1404 ng/mL
NOAEL at 4 weeks (in vivo [1]): 100 mg/kg/day
exposure (total Cmax and AUC) of 0.05 mg/kg bid lower than NOAEL exposure (in vivo [1]): more than 20 fold
NOAEL (in vivo [1]; 4 weeks): 100 mg/kg/day
AUC(0-t) ([2]; dog, plasma, at 6-months, read-out: average AUC0-24h): 7060 ng·h/mL
seizures or convulsions ([2]; up to 6 months): no seizures or convulsions were observed
AUC [3]: 9000 ± 2387 ng·h/mL
AUC0-24h [3]: 6875 ng·h/mL
Cmax [3]: 487 ± 129 ng/mL and 482 ± 129 ng/mL
Abnormal behavior, % ([4]; Behavioral Cohort (n = 7)): 28.6%
Agitation, % ([4]; Behavioral Cohort (n = 7)): 28.6%
Any TEAE, % ([4]; Behavioral Cohort (n = 7)): 85.7%
Cough, % ([4]; Behavioral Cohort (n = 7)): 14.3%
Diarrhea, % ([4]; Behavioral Cohort (n = 7)): 28.6%
Dystonia, % ([4]; Behavioral Cohort (n = 7)): 14.3%
Fatigue, % ([4]; Behavioral Cohort (n = 7)): 28.6%
Gastroenteritis, % ([4]; Behavioral Cohort (n = 7)): 14.3%
Pyrexia, % ([4]; Behavioral Cohort (n = 7)): 14.3%
Respiratory tract infection, % ([4]; Behavioral Cohort (n = 7)): 28.6%
patients with SAEs [4, 11]: Three
tolerability ([4]; behavioral cohort): generally well-tolerated
NR2B occupancy (NR2B receptor; 10 mg/kg): ~90%
occupancy of the NR2B receptor (NR2B receptor; orally administered 1 mg/kg, calculated free plasma fraction, 1:1 brain to plasma ratio assumed): around 60%
CGI-C and CaGI-C (behavioral symptoms): clinical improvement in most patients
anticonvulsant efficacy in audiogenic seizure model (audiogenic seizures): anticonvulsant activity in the same range of doses/exposures
AUCinf Geometric LSM Ratio (Fed/Fasted) [5]: 148.4%
AUClast Geometric LSM Ratio (Fed/Fasted) [5]: 155.8%
Cmax Geometric LSM Ratio (Fed/Fasted) [5]: 259.6%
AUC(0-inf) ([5]; Fasted): 1890 ng·h/mL
AUC(0-t) ([5]; Fasted): 1780 ng·h/mL
Cmax ([5]; Fasted): 81.3 ng/mL
AUC(0-inf) ([5]; Fed): 2810 ng·h/mL
AUC(0-t) ([5]; Fed): 2770 ng·h/mL
Cmax ([5]; Fed): 211 ng/mL
Abnormal behavior, % ([6]; Seizure Cohort (n = 8)): (12.5) %
Agitation, % ([6]; Seizure Cohort (n = 8)): (12.5) %
Any TEAE, % ([6]; Seizure Cohort (n = 8)): (100) %
Cough, % ([6]; Seizure Cohort (n = 8)): (25.0) %
Diarrhoea, % ([6]; Seizure Cohort (n = 8)): (25.0) %
Dystonia, % ([6]; Seizure Cohort (n = 8)): (25.0) %
Fatigue, % ([6]; Seizure Cohort (n = 8)): (12.5) %
Gastroenteritis, % ([6]; Seizure Cohort (n = 8)): (25.0) %
Pyrexia, % ([6]; Seizure Cohort (n = 8)): (50.0) %
Respiratory tract infection, % ([6]; Seizure Cohort (n = 8)): (25.0) %
patients with SAEs [6, 11]: Three
tolerability ([6]; seizure cohort): generally well-tolerated
AUC0-4 [7, 12]: up to 1036 ng×h/mL
AUC(0-t) [7, 12]: up to 1036 ng×h/mL
Cmax [7, 12]: up to 208 ng/mL
safety and tolerability ([7]; 3 infants, treatment for up to 34 days): safe and well tolerated
median reduction in CMS ([8]; 8-week maintenance period): ~86%
patients seizure-free during 80% of days ([8]; 8-week maintenance period): 6 of 7
patients with reduction in CMS of 100% ([8]; 8-week maintenance period): 14.3%
patients with reduction in CMS of ≥50% ([8]; 8-week maintenance period): 71.4%
patients with reduction in CMS of ≥90% ([8]; 8-week maintenance period): 42.9%
patients with reductions from baseline in CMS frequency ([8]; seizure cohort): 6 of 7
CGI-C and CaGI-C ([8]; seizure cohort, clinicians and caregivers): clinical improvement in most patients
NOAEL at 13 weeks (in vivo [9]): 1.5 mg/kg/day
AUC(0-t) (in vivo [9]; 1.5 mg/kg/day): 3750 ng·h/mL
Cmax (in vivo [9]; 1.5 mg/kg/day): 722 ng/mL
tonic phases of PTZ-induced convulsions ([10]; 10 mg/kg, postnatal day 12 and postnatal day 18 rats): completely blocked
dose showing efficacy in juvenile PTZ rat model ([10]; tested up to 30 mg/kg): 1 mg/kg
